# Literature values as cited in patent US9511030B2, “Controlled release particles” (priority 2011, dated 2016).
row,Structure (SMILES),water solubility
1,C=C(C)C(=O)O [Methacrylic acid],8.9 mass %
2,"CCCC1COC(Cn2cncn2)(c2ccc(Cl)cc2Cl)O1 (centres unmarked) [Propiconazole, 1-[2-(2,4-dichlorophenyl)-4-n-propyl-1,3-dioxolane-2-ylmethyl]-1H-1,2,4-triazole]",110 ppm
